# Source: the supplement of paper PMC10307832
# Tests used:
# Test in all cases: relative viability (nuclei count vs DMSO), 5 days (fraction); higher = more cells survive
# [1] = compound: Nc1ncn([C@H]2C[C@H](O)[C@@H](CO)O2)c(=O)n1 [Decitabine]
# In short: (§1)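 Lung cancer cell lines received five library-drug doses (not always all listed) spaced by √10, pinned on vehicle-anchored 1536-well plates after an overnight stay at 37 °C. Five days later, with no medium change, nuclei were Hoechst-stained, imaged at 4× and counted with MetaXpress. Viability is treated-well nuclei relative to vehicle-well nuclei, as a median across plates. Passing plates had control CV below 25% and at least one doubling.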
# [2] = compound: O=C(C[C@H]1NCCC[C@@H]1O)Cn1cnc2cc(Br)c(Cl)cc2c1=O (racemic) [Halofuginone]
# In short: as §1
# [3] = compound: COc1cc2c(Oc3ccc4[nH]c(C)cc4c3F)ncnc2cc1OCCCN1CCCC1 [Cediranib]
# In short: as §1
Cell Line,relative viability ([1]; 0.04 µM),relative viability ([1]; 0.1265 µM),relative viability ([1]; 0.4 µM),relative viability ([1]; 1.265 µM),"relative viability ([1]; 2 µM, anchor plate)",relative viability ([1]; 4 µM),relative viability ([2]; 0.001 µM),relative viability ([2]; 0.003162 µM),relative viability ([2]; 0.01 µM),relative viability ([2]; 0.03162 µM),relative viability ([2]; 0.1 µM),relative viability ([3]; 0.04 µM),relative viability ([3]; 0.1265 µM),relative viability ([3]; 0.4 µM),relative viability ([3]; 1.265 µM),relative viability ([3]; 4 µM)
LCLC-103H,1.07,1.05,0.917,0.85,0.736,0.805,0.992,1.05,0.994,0.96,0.945,1.07,1.03,0.952,1.06,1.06
HCC-827,0.306,0.483,0.398,0.288,0.325,0.377,1.07,1.04,0.976,1.03,0.939,1.19,–,1.02,1.04,1.03
NCI-H322M,0.685,0.821,0.742,0.591,0.699,0.587,0.991,0.956,0.883,0.649,0.478,0.929,1.18,0.871,0.819,1.02
NCI-H1666,0.938,0.9,0.866,0.827,0.764,0.851,0.993,0.936,0.991,1.06,0.991,1.02,1.18,0.989,1.01,1.02
NCI-H1563,1.07,1.04,1.43,0.986,–,1.03,1.02,1.06,0.885,0.664,0.486,0.97,1.39,1.03,0.961,1.13
NCI-H1793,0.715,0.756,0.707,0.498,0.547,0.398,1.01,0.811,0.904,1.04,0.557,0.786,0.891,0.704,–,0.978
NCI-H1437,0.744,0.73,0.542,0.424,0.557,0.425,0.976,1.02,1.01,0.984,0.845,1.08,0.969,0.998,0.972,1.06
NCI-H358,0.65,0.456,0.407,0.285,0.229,0.224,0.994,0.892,0.705,0.341,0.142,0.945,1.13,0.893,0.9,0.899
SW 900,0.465,0.477,0.298,0.25,0.433,0.265,0.911,0.888,0.664,1.02,0.569,0.811,0.774,0.737,0.835,0.952
NCI-H1792,0.802,0.857,0.889,0.534,0.526,0.507,0.923,0.897,0.902,0.913,0.633,0.862,0.846,0.84,0.931,0.795
NCI-H1355,0.768,0.643,0.42,0.338,0.362,0.278,0.989,1.02,0.94,0.941,0.899,0.944,1.04,0.898,0.944,1.06
SK-LU-1,0.788,0.703,0.46,0.482,0.631,0.411,1.09,1.05,1.04,1.05,0.588,1.12,1.02,0.957,0.924,1.11
NCI-H2228,0.665,0.539,0.426,0.283,–,0.275,0.966,0.995,0.981,0.642,0.194,1.18,1.08,0.763,1.06,1.13
NCI-H1623,0.864,0.749,0.664,0.52,–,0.516,0.947,0.873,0.966,1.07,0.875,1,0.599,0.879,1.04,1.07
IA-LM,0.509,0.431,0.272,0.192,–,0.158,0.995,0.94,0.944,0.862,0.354,0.951,0.948,0.877,0.888,1.08
NCI-H2170,0.839,0.746,0.685,0.475,0.471,0.473,0.988,1.05,0.917,0.982,0.991,1,0.764,0.983,0.828,1.03
NCI-H2347,0.885,0.887,0.697,0.6,0.587,0.66,1.08,1.01,1.02,1.02,0.886,1.02,0.84,0.983,1.02,1.11
A-427,0.668,0.612,0.322,0.322,0.558,0.292,1.02,1.04,0.89,0.989,0.921,1.01,–,0.951,0.943,1.07
HCC-366,1.03,0.977,0.546,0.241,0.344,0.155,1.02,1.05,1,0.963,1.01,1.1,1.02,0.993,1.02,1

Cell Line,relative viability ([1]; 0.04 µM),relative viability ([1]; 0.1265 µM),relative viability ([1]; 0.4 µM),relative viability ([1]; 1.265 µM),"relative viability ([1]; 2 µM, anchor plate)",relative viability ([1]; 4 µM),relative viability ([2]; 0.001 µM),relative viability ([2]; 0.003162 µM),relative viability ([2]; 0.01 µM),relative viability ([2]; 0.03162 µM),relative viability ([2]; 0.1 µM),relative viability ([3]; 0.04 µM),relative viability ([3]; 0.1265 µM),relative viability ([3]; 0.4 µM),relative viability ([3]; 1.265 µM),relative viability ([3]; 4 µM)
HCC-78,0.877,0.816,0.673,0.541,0.706,0.47,1.07,0.961,0.958,1.06,0.879,0.963,1.05,0.965,1.03,1
PC-14,0.393,0.449,0.156,0.149,0.218,0.163,1.02,1,0.93,0.639,0.348,1.06,1.08,0.959,0.931,0.998
NCI-H2087,0.574,0.567,0.561,0.296,0.294,0.367,1.09,1.21,0.975,0.886,0.836,1.09,1.18,0.776,1.14,1.27
HOP-62,0.631,0.472,0.253,0.165,0.212,0.199,0.964,1.11,1.01,0.863,0.69,1.07,0.695,0.892,0.983,1.08
EKVX,0.71,0.809,0.647,0.418,0.358,0.375,1.06,0.928,0.989,1,0.858,1.05,0.929,0.888,0.844,1.03
EMC-BAC-2,–,1.04,0.817,0.726,0.976,0.685,1.07,0.977,1.13,0.926,0.595,0.957,0.753,0.913,0.933,1.09
EBC-1,0.626,0.456,0.313,0.272,–,0.246,1.06,0.946,0.829,0.496,0.231,0.999,0.946,0.971,1.01,1.19
HARA,0.79,0.818,0.482,0.381,0.519,0.374,0.963,0.927,0.915,1.12,0.827,0.908,1.01,0.878,1.05,1.01
LU99A,0.923,0.987,0.981,0.868,0.906,0.773,0.971,0.955,0.928,0.814,0.821,0.982,–,0.976,0.845,0.985
NCI-H1944,0.9,0.869,0.541,0.381,0.429,0.441,0.962,0.951,0.918,0.963,0.922,0.93,0.955,0.918,0.883,0.936
LK-2,0.848,1.03,0.721,0.472,0.302,0.484,0.91,0.927,1.03,1.02,0.741,1.03,0.86,0.909,0.965,0.821
NCI-H441,0.406,0.381,0.274,0.229,0.25,0.238,1.14,1.12,1.06,0.943,0.596,1.04,0.985,0.884,1.03,1.09
NCI-H23,0.671,0.462,0.341,0.26,0.324,0.293,0.979,0.937,0.868,0.874,0.671,0.882,0.75,0.847,0.844,1
NCI-H647,0.732,0.817,0.451,0.249,0.403,0.233,1.11,0.971,0.905,0.815,0.599,1.06,0.911,0.831,0.895,1.01
201T,0.981,1.02,1.04,0.612,0.855,0.953,0.97,0.967,0.952,0.933,0.803,1.04,1.1,0.911,0.956,0.974
NCI-H1299,1.03,1.02,1.02,0.943,–,0.874,1.06,1.06,0.999,0.979,0.886,1.02,1.02,0.99,1.03,1.09
NCI-H1734,0.804,0.829,0.69,0.498,0.517,0.363,1,1.06,0.985,0.984,0.751,0.897,0.951,0.96,0.821,1.09
NCI-H596,0.894,0.871,0.607,0.799,1.04,0.692,1.01,0.965,1.13,0.882,0.549,1.06,0.959,0.935,0.907,1.1
